{"source": "paper PMC7969932", "about": "“Population pharmacokinetics and dose optimization of vancomycin in neonates” (Scientific Reports, 2021)", "key": {"[1]": {"conditions": "cited from earlier work", "excerpt": "(§1) There are numerous approaches to determining the adequate dosage regimen of vancomycin in neonates. To reflect PD and PK, area-under-the-curve concentrations versus time to the minimum inhibitory concentrations (AUC: MIC) can be used."}, "[2]": {"conditions": "Css,trough 15–20 μg/mL, neonates; cited from earlier work", "excerpt": "as §1"}, "[3]": {"experiment": "Population pharmacokinetic modeling of vancomycin (NONMEM, one-compartment, first-order elimination; bootstrap, pc-VPC)", "description": "For the analysis of vancomycin population pharmacokinetic parameters, nonlinear mixed-effect modeling was performed using NONMEM ver. 7.3 (Icon Development Solutions, Ellicott City, MD, USA) in conjunction with Perl Speaks NONMEM (PsN ver. 4.4.0), Pirana (ver. 2.9.7), and Xpose (ver. 4.0) contained in the R software package (ver. 3.5.0; http://www.r-project.org). The population analysis was conducted using the first-order conditional estimation method (FOCE) with ε–η interaction (FOCE INTER). One- and two-compartment models with first-order elimination were evaluated as potential structural pharmacokinetic models. The fixed-effect parameters were total clearance (CL) and volume of distribution (V) for the one-compartment model, and total CL, central V (V1), peripheral V (V2), and inter-compartmental CL (Q) for the two-compartment model. Possible correlations among the interindividual variability for pharmacokinetic parameters in the model were assessed by the OMEGA BLOCK functionality. Allometric scaling was applied to CL and isometric scaling was applied to V to standardize the pharmacokinetic parameters. The final allometric model was as follows: 3 CL=θCL×(WTi/70)^0.75 4 V=θV×(WTi/70)^1 where CL is the clearance in the ith individual with body weight WTi; θCL is the typical CL value in a standardized adult (70 kg); and θv is the typical V in a standardized adult (70 kg). Interindividual variability in the PK parameters was analyzed using exponential and power models. Covariance between interindividual variability was estimated using a variance–covariance matrix. Residual variability was attempted using additive, proportional, and combined models.\nCovariates were investigated for the population modeling using linear, proportional, power, and exponential functions. […] When objective function value was decreased by at least 3.84 (χ^2-test, P < 0.05) from the structural model during the forward selection, the covariate was included in the model. All covariates that met the criteria were added to develop the full model. Then, during backward elimination, any covariate with an increase of at least 6.64 (χ^2-test, P < 0.01) was kept in the model. The categorical covariates tested were as follows: sex (where female = 1, male = 0), and types of delivery (where NsvD = 0, Csec = 1). The continuous covariates tested were body weight, blood urea nitrogen, SCr, protein, albumin, neutrophil, AST, ALT, CRP, WBC, height, PMA, PNA, CLcr, and gestational age.\nModel validation was performed via three methods: graphical diagnostics using a goodness-of-fit plot, bootstrapping, and a pc-VPC. Individual observed vs. individual-predicted values and conditional weighted residual vs. time or population-predicted values or individual-predicted values were plotted using R for NONMEM. Bootstrap datasets were repeated 1,000 times using the final model; the pc-VPC was performed as a diagnostic plot."}, "[4]": {"conditions": "1000 resampled data sets (993 successful), per 70 kg"}}, "data": [{"compound": "CN[C@H](CC(C)C)C(=O)N[C@H]1C(=O)N[C@@H](CC(N)=O)C(=O)N[C@H]2C(=O)N[C@H]3C(=O)N[C@H](C(=O)N[C@H](C(=O)O)c4cc(O)cc(O)c4-c4cc3ccc4O)[C@H](O)c3ccc(c(Cl)c3)Oc3cc2cc(c3O[C@@H]2O[C@H](CO)[C@@H](O)[C@H](O)[C@H]2O[C@H]2C[C@](C)(N)[C@H](O)[C@H](C)O2)Oc2ccc(cc2Cl)[C@H]1O", "note": "[vancomycin]", "values": [{"measurement": "Css,trough that could satisfy AUC0-24/MIC ≥ 400 with less toxicity", "setting": "[1]", "result": "5 to 15", "unit": "µg/mL"}, {"measurement": "Trough concentrations that can achieve AUC0-24/MIC ≥ 400", "setting": "[1]", "result": "around 10 mg/L"}, {"measurement": "Nephrotoxicity", "setting": "[2]", "result": "higher nephrotoxicity"}, {"measurement": "θ1, typical value of clearance, Bootstrap median (95% CI)", "setting": "[3]; [4]", "result": "2.07 (1.94, 2.21) L/h"}, {"measurement": "θ4, typical value of volume of distribution, Bootstrap median (95% CI)", "setting": "[3]; [4]", "result": "45.7 (41.6, 50.6) L"}, {"measurement": "θ2, power of PMA/31.7 on clearance, Estimate (%RSE)", "setting": "[3]; final model", "result": "0.795 (26%)"}, {"measurement": "θ3, power of CLcr/50.3 on clearance, Estimate (%RSE)", "setting": "[3]; final model", "result": "0.741 (6%)"}, {"measurement": "θ4, typical value of volume of distribution (TVV), Estimate (%RSE)", "setting": "[3]; standardized to 70 kg (power 1), final model", "result": "45.6 (5%) L"}]}]}
